The record followed here is paper PMC8906008 (Antiviral Research, 2022).

Bounds are passed on as bounds.

The target in one assay is SARS-CoV-2 nsp5 (nsp4-5-6 WT) (Severe acute respiratory syndrome coronavirus 2, UniProt P0DTD1). The assay is described as follows: cell-based.
As to `C1=C/COCc2cc(ccc2OCCN2CCCC2)Nc2nccc(n2)-c2cccc(c2)COC/1` [Compound #9, Pacritinib (SB1518)], the “dose-response curve in Rev-Nluc assay” value is “irregular pattern”.

The next assay concerns SARS-CoV-2 nsp4-5-6 C145A.
Assay: not given
Format: cell-based.
On to `Cc1sc2c(c1C)C(c1ccc(Cl)cc1)=N[C@@H](CC(=O)Nc1ccc(O)cc1)c1nnc(C)n1-2` [compound 7, OTX015], for which the “Secondary screen nsp5-CA RLU (%)” value is over 250%.

Consider `C=CC(=O)Nc1cc(Nc2nccc(-c3cn(C)c4ccccc34)n2)c(OC)cc1N(C)CCN(C)C` [compound 23, Osimertinib (AZD9291)], for which the “Secondary screen nsp5-CA RLU (%)” value is 43.2 ± 6.7%.

Consider `Cc1cnc(Nc2ccc(N3CCN(C)CC3)cc2)nc1Nc1cccc(S(=O)(=O)NC(C)(C)C)c1` [compound 8, TG101209], for which the “Secondary screen nsp5-CA RLU (%)” value is listed as over 250%.

Regarding `CNCc1ccc(C)c(NC(=O)c2ccc(Nc3nc(-c4ccccc4)c4ccccc4n3)cc2)c1` [compound 16, BMS-833923 (XL139)], the “Secondary screen nsp5-CA RLU (%)” value amounted to 256.0 ± 74.0%.

As to `O=C(NC(Cc1cc(=O)[nH]c2ccccc12)C(=O)O)c1ccc(Cl)cc1` (stereo not drawn) [compound 43, Rebamipide], the “Secondary screen nsp5-CA RLU (%)” value amounted to 71.6 ± 6.5%.

`CC[C@@H]1C(=O)N(C)c2cnc(Nc3ccc(C(=O)N[C@H]4CC[C@H](N5CCN(CC6CC6)CC5)CC4)cc3OC)nc2N1C(C)C` [compound 4, Volasertib (BI6727)]: the “Secondary screen nsp5-CA RLU (%)” value is listed as over 250%.

`CC(C)(C)c1cnc(CSc2cnc(NC(=O)C3CCNCC3)s2)o1` [compound 17, SNS-032 (BMS-387032)]: the “Secondary screen nsp5-CA RLU (%)” value is given as 66.6 ± 3.4%.

For `COc1cc(NC(=O)Nc2cccc(CNC(=O)O[C@H]3CCOC3)c2)ccc1-c1cnco1` [compound 5, Merimepodib], the “Secondary screen nsp5-CA RLU (%)” value is recorded as 110.4 ± 10.8%.

Consider `Cc1cnc(Nc2ccc(OCCN3CCCC3)cc2)nc1Nc1cccc(S(=O)(=O)NC(C)(C)C)c1` [compound 6, Fedratinib (SAR302503)], for which the “Secondary screen nsp5-CA RLU (%)” value is given as over 250%.

As to `COCCOc1ccc2c(c1)ncn2-c1ccc2cccc(N3CCC(N)CC3)c2n1` [compound 12, CP 673451], the “Secondary screen nsp5-CA RLU (%)” value is listed as 144.6 ± 10.3%.

In the case of UNC2881 [compound 1], the “Secondary screen nsp5-CA RLU (%)” value is on record as 295.3 ± 15.8%.

`CC(C)(C(=O)c1cccnc1)c1cccnc1` [compound 44, Metyrapone]: the “Secondary screen nsp5-CA RLU (%)” value worked out at 77.7 ± 2.4%.

Take `CCOC(=O)C1=C(C)NC(C)=C(C(=O)OCC)C1c1ccccc1/C=C/C(=O)OC(C)(C)C` [compound 3, Lacidipine]: the “Secondary screen nsp5-CA RLU (%)” value stood at 121.2 ± 7.4%.

Take `C=CC(=O)Nc1cccc(Nc2nc(Nc3ccc(N4CCN(C(C)=O)CC4)cc3OC)ncc2C(F)(F)F)c1` [compound 20, Rociletinib (CO-1686. AVL-301)]: the “Secondary screen nsp5-CA RLU (%)” value is on record as 181.9 ± 10.4%.

Consider `C1=C/COCc2cc(ccc2OCCN2CCCC2)Nc2nccc(n2)-c2cccc(c2)COC/1` [Compound #9, Pacritinib (SB1518)], for which the “Secondary screen nsp5-CA RLU (%)” value worked out at 98.3 ± 4.0%.

Consider `Cc1nc(Nc2ncc(C(=O)Nc3c(C)cccc3Cl)s2)cc(N2CCN(CCO)CC2)n1` [compound 21, Dasatinib (BMS-354825)], for which the “Secondary screen nsp5-CA RLU (%)” value is reported as 249.1 ± 19.9%.

As for `O=C(Nc1c[nH]nc1-c1nc2ccc(CN3CCOCC3)cc2[nH]1)NC1CC1` [compound 10, AT9283], the “Secondary screen nsp5-CA RLU (%)” value was found to be 71.3 ± 8.3%.
